Assay results: publication PMC10252594 (Cancers, 2023)
Marks after values point to notes of the source that are not given here.

Legend:
[1] = system: LAPC-4 xenografts
From the text: The xenograft experiment was approved by the Université Laval Animal Care Committee (Comité de Protection des Animaux de l’Université Laval, Québec, QC, Canada) and carried out in an animal facility approved by the Canadian Council on Animal Care (CCAC). Homozygous male Balb/c athymic nude mice (~42 days old, weighing approximately 28 g) were obtained from Charles River Inc. (Saint-Constant, QC, Canada) and housed (4 to 5) in vinyl micro-isolated ventilated cages equipped with air lids. Cages were kept in laminar airflow hoods and maintained in pathogen-limiting conditions. The animals were housed under a controlled environment at 22 ± 3 °C with 50 ± 20% relative humidity and light set at 12 h/day (light on at 07:15) during the acclimatization and study periods. Sterile water and rodent food (Rodent Diet #T.2018.15, Harlan Teklad, Madison, WI, USA) were provided ad libitum.
After an acclimatization period of 5 days, the mice were inoculated into both flanks by subcutaneous (SC) injection of 4 × 10^6 LAPC-4 cells (Passage 14) in 0.1 mL of growth medium containing 50% Matrigel (BD Biosciences, Mississauga, ON, Canada) via a 2.5-cm long 22-gauge needle. Two weeks later, mice that developed tumors were randomized according to tumor volume, divided into […] groups (Gr-1 to Gr-8), and treated over a period of 28 days. A bilateral orchiectomy was performed under isoflurane-induced anesthesia for Gr-1 but not for Gr-2 to Gr-8. Both Gr-1 (CTX control (CTL), 9 mice, 16 tumors) and Gr-2 (intact CTL, 9 mice, 18 tumors) were treated with 0.1 mL of the vehicle alone (8% DMSO/92% propylene glycol (PG) administered by gavage (PO). Gr-3 (30 mg/kg/PO, 10 mice, 19 tumors) received 0.843 mg of RM-581. Gr-4 (10 mg/kg/PO, 10 mice, 20 tumors) received 0.281 mg of RM-581. Gr-5 (3 mg/kg/PO, 10 mice, 18 tumors) received 0.084 mg of RM-581. Gr-6 (60 mg/kg/SC, 9 mice, 18 tumors) received 1.686 mg of abiraterone. Gr-7 (60 mg/kg/PO, 9 mice, 17 tumors) received 1.686 mg of abiraterone acetate. Gr-8 (4 mg/kg/IP, 9 mice, 17 tumors) received 0.112 mg of docetaxel.
RM-581 and abiraterone acetate were administered six days a week PO; abiraterone was administered six days a week SC; and docetaxel was administered twice a week by intraperitoneal (IP) injection. RM-581 was first dissolved in DMSO, and thereafter we added PG to obtain the appropriate concentration in the vehicle fluid (8% DMSO/92% PG). Abiraterone acetate and abiraterone were dissolved in 0.3% hydroxypropyl cellulose in saline (0.9% NaCl), while docetaxel was first dissolved in DMSO, and thereafter we added phosphate-buffered saline (PBS) to obtain the proper concentration in the carrier fluid (0.5% DMSO/99.5% PBS). All solutions were prepared one day prior to the initiation of treatment and stored at 4 °C under constant agitation.
The mice were weighed at the start and end of the protocol. Tumor area (mm^2) was calculated twice a week using two perpendicular diameters (L and W), which were recorded using a caliper, and the formula L/2 × W/2 × π. The area measured on the first day of treatment was fixed at 100%. At the end of the studies and 3 h after the last treatment, the mice were terminally anesthetized, and their final body weights were measured. Tumors, liver, kidney, and total prostate were collected from mice during necropsy, while blood was collected by cardiac puncture. Tissues and plasma were immediately frozen at −80 °C until analysis.

[2] = system: androgen-dependent and androgen-independent PC cell lines; settings: cited from earlier work
[3] = system: LAPC-4 cells; assay: LAPC-4 cell viability proliferation and combination index assays (MTS, 6 days); type: cell-based, human; settings: LAPC-4, six days
Method: LAPC-4 cells (1 × 10^4 cells/well) were seeded in triplicate in 96-well plates in IMDM (Iscove’s modified Dulbecco’s medium) (90 μL) supplemented (v/v) with 5% fetal FBS, 1% L-glutamine, 1% insulin, and 1% penicillin/streptomycin. The cells were incubated at 37 °C in a 5% CO2 humidified atmosphere for 24 h. […] After 6 days of incubation, the cell proliferation was determined by adding 10 µL of MTS followed by incubation at 37 °C for 4 h. Plates were then analyzed at 490 nm using a Tecan M-200 microplate reader (Männedorf, Switzerland). Using GraphPad Prism 7 software, the IC50 values were calculated. The values represent the average of two independent experiments performed in triplicate. According to the Chou–Talalay method and using the following formula, the CI (combination) was calculated. CI=(D)1/(DX)1+(D)2/(DX)2
Denominators (DX)l and (DX)2 are the doses of individual drugs required to achieve a given effect level, and numerators (D)1 and (D)2 are the concentrations of each drug present in combination to trigger the same effect level. When the drugs interact additively, CI = 1, but a CI < 1 indicates a synergistic interaction, and a CI > 1 indicates an antagonistic effect.

[4] = system: LAPC-4 cells; assay: Total cholesterol in LAPC-4 cells (kit); type: cell-based, human; settings: 18, 36, or 72 h; RM-581 2 μM or atorvastatin 10 μM
Method: A cholesterol quantification kit provided by Sigma-Aldrich (Catalog Number MAK043) was used following the manufacturer’s instructions to determine the concentration of total cholesterol, free cholesterol, and cholesteryl ester in samples. The cholesterol contents were measured in samples from two different protocols. […] Secondly, in tumor, liver, and plasma obtained at the end of the LAPC-4 xenograft experiment (control group and the group treated with RM-581 at 10 mg/kg/PO).

[5] = system: LAPC-4 cells; assay: Gene expression study by qPCR; type: cell-based, human; settings: RM-581 5 µM or atorvastatin 10 µM, CTL fixed at 1.0
Method: LAPC-4 cells (3 × 10^5) were treated with RM-581 (1, 2, and 5 µM) at different times (6, 18, 24, and 36 h) and the expression of various genes was determined as previously reported. Primer sequences used for the analysis of each gene are reported in Table S3 (Supplementary Materials).

[6] = system: PC-3 xenograft; parameters: method as in PMID 34681843; settings: PC-3 xenograft, 4 mg/kg IP; cited from earlier work
[7] = system: LNCaP (AR+) cells; parameters: method as in earlier work; settings: ref 52 Furuya et al.; cited from earlier work
[8] = system: PC-3 (AR−) cells; parameters: method as in earlier work; settings: ref 52 Furuya et al.; cited from earlier work

CC(=O)O[C@H]1CC[C@@]2(C)C(=CC[C@@H]3[C@@H]2CC[C@]2(C)C(c4cccnc4)=CC[C@@H]32)C1 [abiraterone acetate, reference compound]
effect on tumor compared to intact group ([1]; 60 mg/kg PO, day 28): no longer significant
IC50 [2]: > 10 µM

C[C@]12CC[C@H](O)CC1=CC[C@@H]1[C@@H]2CC[C@]2(C)C(c3cccnc3)=CC[C@@H]12 [abiraterone, reference compound]
day of significantly different effect vs intact control ([1]; 60 mg/kg SC): 18 days
tumor reduction compared to intact control group ([1]; 60 mg/kg SC, 6 days a week, day 28): 40%
IC50 ([3]; Homo sapiens, LAPC4, 144 h, single drugs and 1:1 combinations, read-out: IC50 (Figure 2B)): 11.5 µM

CC(C)c1c(C(=O)Nc2ccccc2)c(-c2ccccc2)c(-c2ccc(F)cc2)n1CC[C@@H](O)C[C@@H](O)CC(=O)O [atorvastatin, reference compound]
Total cholesterol in LAPC-4 cells vs untreated cells [4]: did not show a significant difference
ACAT1 mRNA expression ([5]; 6 h): 1.0
ACLY mRNA expression ([5]; 6 h): 1.0
FASN mRNA expression ([5]; 6 h): 1.2
HMGCR mRNA expression ([5]; 6 h): 1.4 *
HMGCS1 mRNA expression ([5]; 6 h): 1.3
LDLR mRNA expression ([5]; 6 h): 1.0
MVD mRNA expression ([5]; 6 h): 1.6 *
MVK mRNA expression ([5]; 6 h): 1.5
SCD1 mRNA expression ([5]; 6 h): 1.4
ACAT1 mRNA expression ([5]; 18 h): 1.0
ACLY mRNA expression ([5]; 18 h): 1.2
FASN mRNA expression ([5]; 18 h): 1.3
HMGCR mRNA expression ([5]; 18 h): 1.8 *
HMGCS1 mRNA expression ([5]; 18 h): 3.5 *
LDLR mRNA expression ([5]; 18 h): 1.8 *
MVD mRNA expression ([5]; 18 h): 2.6 *
MVK mRNA expression ([5]; 18 h): 2.0 *
SCD1 mRNA expression ([5]; 18 h): 1.6 *
ACAT1 mRNA expression ([5]; 24 h): 1.0
ACLY mRNA expression ([5]; 24 h): 1.9 *
FASN mRNA expression ([5]; 24 h): 1.7 *
HMGCR mRNA expression ([5]; 24 h): 2.6 *
HMGCS1 mRNA expression ([5]; 24 h): 2.7 *
LDLR mRNA expression ([5]; 24 h): 1.8 *
MVD mRNA expression ([5]; 24 h): 3.5 *
MVK mRNA expression ([5]; 24 h): 2.5 *
SCD1 mRNA expression ([5]; 24 h): 2.6 *
ACAT1 mRNA expression ([5]; 36 h): 1.1
ACLY mRNA expression ([5]; 36 h): 2.2 *
FASN mRNA expression ([5]; 36 h): 1.8 *
HMGCR mRNA expression ([5]; 36 h): 3.5 *
HMGCS1 mRNA expression ([5]; 36 h): 2.0 *
LDLR mRNA expression ([5]; 36 h): 2.5 *
MVD mRNA expression ([5]; 36 h): 4.0 *
MVK mRNA expression ([5]; 36 h): 2.5 *
SCD1 mRNA expression ([5]; 36 h): 4.5 *

CC(=O)O[C@@]12CO[C@@H]1C[C@H](O)[C@@]1(C)C(=O)[C@H](O)C3=C(C)[C@@H](OC(=O)[C@H](O)[C@@H](NC(=O)OC(C)(C)C)c4ccccc4)C[C@@](O)([C@@H](OC(=O)c4ccccc4)[C@H]21)C3(C)C [docetaxel, reference compound]
effect on tumor growth ([1]; 4 mg/kg IP twice a week): no significant effect
cell growth plateau ([3]; between 0.01 and 10 µM): around 25%
block of tumor growth [6]: 35%

CCC(C)(C)C(=O)O[C@H]1C[C@@H](C)C=C2C=C[C@H](C)[C@H](CC[C@@H]3C[C@@H](O)CC(=O)O3)[C@H]21 [simvastatin]
LDLR expression [7]: increased
intracellular cholesterol ratio [7]: without affecting
LDLR expression [8]: decreased
intracellular cholesterol ratio [8]: decreased
